This passage reports relative viability results from the supplement of paper PMC10307832.

Common to all, as to experiment: relative viability (nuclei count vs DMSO), 5 days (fraction); higher = more cells survive
Compound in the experiment “Salubrinal + Olaparib”: O=C(/C=C/c1ccccc1)NC(NC(=S)Nc1cccc2cccnc12)C(Cl)(Cl)Cl [Salubrinal] + O=C(c1cc(Cc2n[nH]c(=O)c3ccccc23)ccc1F)N1CCN(C(=O)C2CC2)CC1 [Olaparib] (partner 8 µM)
In short, it runs like this: (§1)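 The day after seeding in 1536-well plates, lung cancer cell lines were treated by pin tool with a single drug, or with a fixed anchor-drug dose together with five library-drug doses (not always all listed) in √10 steps. After 5 days, a combined fix-and-stain solution (final 0.05% Triton X-100, 1% formaldehyde, 1 ug/ml Hoechst) was added. Nuclei counted on 4× images gave relative viability as treated counts over vehicle counts, reported as the median of duplicate plates.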

Compound in experiment [1]: Cc1ccc2nc(NCCN)c3ncc(C)n3c2c1 + COc1cc2c(Oc3ccc(NC(=O)C4(C(=O)Nc5ccc(F)cc5)CC4)cc3F)ccnc2cc1OCCCN1CCOCC1 [Foretinib] (partner 0.25 µM)
In short, it runs like this:
as §1

Compound in experiment [2]: Cc1ccc2nc(NCCN)c3ncc(C)n3c2c1 + CS(=O)(=O)N1CCN(Cc2cc3nc(-c4cccc5[nH]ncc45)nc(N4CCOCC4)c3s2)CC1 [Pictilisib] (partner 1 µM)
In short, it runs like this:
as §1

Compound in the experiment “Salubrinal + Tozasertib”: O=C(/C=C/c1ccccc1)NC(NC(=S)Nc1cccc2cccnc12)C(Cl)(Cl)Cl [Salubrinal] + Cc1cc(Nc2cc(N3CCN(C)CC3)nc(Sc3ccc(NC(=O)C4CC4)cc3)n2)n[nH]1 [Tozasertib] (partner 0.1 µM)
In short, it runs like this: as §1

For NCI-H2228, the relative viability is 0.691 with Salubrinal + Olaparib (first compound 0.08 µM); 0.969 in the experiment with Salubrinal + Olaparib (first compound 0.8 µM); 0.555 with Salubrinal + Olaparib (first compound 2.53 µM); 0.385 in the experiment with Salubrinal + Olaparib (first compound 8 µM); 0.896 in experiment [1] (first compound 0.04 µM); 0.764 in experiment [1] (first compound 0.1265 µM). In addition, the relative viability is 0.829 in experiment [1] (first compound 0.4 µM); 0.798 in experiment [1] (first compound 1.265 µM); 0.749 in experiment [1] (first compound 4 µM); 0.464 in experiment [2] (first compound 0.04 µM); 0.592 in experiment [2] (first compound 0.1265 µM); 0.417 in experiment [2] (first compound 0.4 µM). The relative viability was 0.272 in experiment [2] (first compound 1.265 µM); 0.369 in experiment [2] (first compound 4 µM); 0.268 in the experiment with Salubrinal + Tozasertib (first compound 0.08 µM); 0.304 with Salubrinal + Tozasertib (first compound 0.253 µM); 0.283 in the experiment with Salubrinal + Tozasertib (first compound 0.8 µM); 0.222 in the experiment with Salubrinal + Tozasertib (first compound 2.53 µM). Moreover, the relative viability with Salubrinal + Tozasertib (first compound 8 µM) is 0.197.

NCI-H2347: the relative viability with Salubrinal + Olaparib (first compound 0.08 µM) turned out to be 0.595; in the experiment with Salubrinal + Olaparib (first compound 0.253 µM) it was 0.657; in the experiment with Salubrinal + Olaparib (first compound 0.8 µM), 0.609; with Salubrinal + Olaparib (first compound 2.53 µM), 0.613; with Salubrinal + Olaparib (first compound 8 µM), 0.584; in experiment [1] (first compound 0.04 µM) it was 1.2. For the same cell line, the relative viability was found to be 0.741 in experiment [1] (first compound 0.1265 µM); 1.02 in experiment [1] (first compound 0.4 µM); 0.869 in experiment [1] (first compound 1.265 µM); 0.792 in experiment [1] (first compound 4 µM); 0.762 in experiment [2] (first compound 0.04 µM); 0.673 in experiment [2] (first compound 0.1265 µM). The relative viability in experiment [2] (first compound 0.4 µM) is 0.59; in experiment [2] (first compound 1.265 µM) it was 0.645; in experiment [2] (first compound 4 µM), 0.557; in the experiment with Salubrinal + Tozasertib (first compound 0.08 µM), 0.619; with Salubrinal + Tozasertib (first compound 0.253 µM), 0.543; in the experiment with Salubrinal + Tozasertib (first compound 0.8 µM), 0.617. Moreover, the relative viability with Salubrinal + Tozasertib (first compound 2.53 µM) stood at 0.51; with Salubrinal + Tozasertib (first compound 8 µM), 0.568.

For the cell line NCI-H2405, the relative viability was 0.951 with Salubrinal + Olaparib (first compound 0.08 µM); 0.879 in the experiment with Salubrinal + Olaparib (first compound 0.253 µM); 0.925 with Salubrinal + Olaparib (first compound 0.8 µM); 0.822 with Salubrinal + Olaparib (first compound 2.53 µM); 0.928 with Salubrinal + Olaparib (first compound 8 µM); 1.05 in experiment [1] (first compound 0.04 µM). Moreover, the relative viability is 1.04 in experiment [1] (first compound 0.1265 µM); 1.05 in experiment [1] (first compound 0.4 µM); 0.978 in experiment [1] (first compound 1.265 µM); 0.986 in experiment [1] (first compound 4 µM); 0.442 in experiment [2] (first compound 0.04 µM); 0.443 in experiment [2] (first compound 0.1265 µM). In addition, the relative viability in experiment [2] (first compound 0.4 µM) turned out to be 0.441; in experiment [2] (first compound 1.265 µM), 0.511; in experiment [2] (first compound 4 µM), 0.396; with Salubrinal + Tozasertib (first compound 0.08 µM), 0.722; in the experiment with Salubrinal + Tozasertib (first compound 0.253 µM) it was 0.748; with Salubrinal + Tozasertib (first compound 0.8 µM), 0.801. Further, the relative viability with Salubrinal + Tozasertib (first compound 2.53 µM) was 0.713; with Salubrinal + Tozasertib (first compound 8 µM) it was 0.696.

In the case of NCI-H3122, the relative viability with Salubrinal + Olaparib (first compound 0.08 µM) turned out to be 0.762; with Salubrinal + Olaparib (first compound 0.253 µM), 1.23; with Salubrinal + Olaparib (first compound 0.8 µM), 0.566; with Salubrinal + Olaparib (first compound 2.53 µM), 0.664; with Salubrinal + Olaparib (first compound 8 µM) it was 0.683; in experiment [1] (first compound 0.04 µM), 0.928. The relative viability in experiment [1] (first compound 0.1265 µM) was found to be 0.981; in experiment [1] (first compound 0.4 µM), 0.924; in experiment [1] (first compound 1.265 µM), 1.07; in experiment [1] (first compound 4 µM), 0.875; in experiment [2] (first compound 0.04 µM), 0.646; in experiment [2] (first compound 0.1265 µM) it was 0.585. The relative viability in experiment [2] (first compound 0.4 µM) is 0.541; in experiment [2] (first compound 1.265 µM), 0.735; in experiment [2] (first compound 4 µM), 0.672; with Salubrinal + Tozasertib (first compound 0.08 µM), 0.416; with Salubrinal + Tozasertib (first compound 0.253 µM), 0.387; with Salubrinal + Tozasertib (first compound 0.8 µM), 0.591. Further, the relative viability with Salubrinal + Tozasertib (first compound 2.53 µM) is 0.387; with Salubrinal + Tozasertib (first compound 8 µM) it was 0.428.

As to PC-3 [JPC-3], the relative viability with Salubrinal + Olaparib (first compound 0.08 µM) came to 1.16; with Salubrinal + Olaparib (first compound 0.253 µM), 0.567; with Salubrinal + Olaparib (first compound 0.8 µM), 1.23; in the experiment with Salubrinal + Olaparib (first compound 2.53 µM) it was 1.1; with Salubrinal + Olaparib (first compound 8 µM), 1.09; in experiment [1] (first compound 0.04 µM), 1.1. Moreover, the relative viability in experiment [1] (first compound 0.1265 µM) was found to be 1.04; in experiment [1] (first compound 0.4 µM) it was 0.934; in experiment [1] (first compound 1.265 µM), 0.986; in experiment [1] (first compound 4 µM) it was 1.09; in experiment [2] (first compound 0.04 µM), 0.758; in experiment [2] (first compound 0.1265 µM), 0.752. The relative viability is 0.731 in experiment [2] (first compound 0.4 µM); 0.725 in experiment [2] (first compound 1.265 µM); 0.7 in experiment [2] (first compound 4 µM); 1.12 in the experiment with Salubrinal + Tozasertib (first compound 0.08 µM); 0.649 in the experiment with Salubrinal + Tozasertib (first compound 0.253 µM); 0.857 with Salubrinal + Tozasertib (first compound 0.8 µM). The relative viability was found to be 0.896 with Salubrinal + Tozasertib (first compound 2.53 µM) and 0.831 in the experiment with Salubrinal + Tozasertib (first compound 8 µM).

Regarding PC-14, the relative viability in the experiment with Salubrinal + Olaparib (first compound 0.08 µM) worked out at 0.278; with Salubrinal + Olaparib (first compound 0.253 µM), 0.258; with Salubrinal + Olaparib (first compound 0.8 µM) it was 0.259; with Salubrinal + Olaparib (first compound 2.53 µM), 0.246; in the experiment with Salubrinal + Olaparib (first compound 8 µM) it was 0.25; in experiment [1] (first compound 0.04 µM), 0.944. Moreover, the relative viability is 0.908 in experiment [1] (first compound 0.1265 µM); 0.984 in experiment [1] (first compound 0.4 µM); 0.933 in experiment [1] (first compound 1.265 µM); 0.943 in experiment [1] (first compound 4 µM); 0.753 in experiment [2] (first compound 0.04 µM); 0.736 in experiment [2] (first compound 0.1265 µM). Further, the relative viability in experiment [2] (first compound 0.4 µM) is 0.757; in experiment [2] (first compound 1.265 µM), 0.481; in experiment [2] (first compound 4 µM), 0.583; in the experiment with Salubrinal + Tozasertib (first compound 0.08 µM), 0.629; with Salubrinal + Tozasertib (first compound 0.253 µM), 0.663; with Salubrinal + Tozasertib (first compound 0.8 µM) it was 0.638. Moreover, the values for the relative viability in the experiment with Salubrinal + Tozasertib (first compound 2.53 µM) and with Salubrinal + Tozasertib (first compound 8 µM) were 0.525 and 0.601, respectively.
